According to the RepoRT retention time repository:

Test: Agilent ZORBAX 300 SB-C18, 150 × 1 mm, 3.5 µm; A: water + 0.01% heptafluorobutyric acid; B: acetonitrile + 0.01% heptafluorobutyric acid; gradient (min/%B) 0/0 100/90
Conditions: stereoisomer not certain

LC retention time | Compound
7.16 min | Nc1nc(N)nc(-c2ccc(-c3nc(N)nc(N)n3)cc2)n1
9.84 min | CN(C)c1ccc(C=NNC(N)=S)cc1
15.5 min | O=C(CNc1cccc2ccccc12)NN=CC=Cc1ccccc1
10.4 min | CC(=O)Nc1coc2ccccc12
6.14 min | Cc1cc2[nH]c(=O)[nH]c2cc1N
6.1 min | CCc1ncc[nH]1
12.5 min | Cc1ccccc1Nc1nc(Nc2ccccc2C)c2ccccc2n1
8.87 min | OCc1ccccc1CNC1CCCCC1
2.23 min | NC(=O)c1cc(O)c(O)c(O)c1
8.11 min | CCOC(CN1CCCCC1)OCC
11.1 min | CCC(=O)Nc1ccc(NCC(=O)Nc2ccc(C)cc2C)cc1
16.5 min | COc1cccc(C2C3=C(CC(C)(C)CC3=O)OC3=C2C(=O)CC(C)(C)C3)c1OC
7.69 min | O=C(O)CCNc1cc(C(=O)O)ccc1C(=O)O
9.12 min | O=C(NCc1n[nH]c(=O)c2ccccc12)C(=Cc1ccco1)NC(=O)c1ccco1
13.3 min | CCCCN=CC1=C(O)CC(c2ccccc2)CC1=O (configuration not stated)
11.9 min | Cc1[nH]c(C)c(C(=O)Nc2ccccc2)c1C
7.66 min | CC(=O)c1c[nH]cc1C
9.15 min | O=C1NC(=O)C(c2ccccc2)(c2ccc(O)cc2)N1 (configuration not stated)
9.74 min | Nc1ccc2ncn(Cc3ccccc3)c(=O)c2c1
12.7 min | Cn1cccc1CC(=O)NN=CC=Cc1ccccc1
7.39 min | C=CCN1CCNCC1
14.2 min | CCCCC(CC)CNCC(CC)CCCC (configuration not stated)
15 min | CCOc1ccc(C(=O)NNC(=O)COc2ccc(C(C)CC)cc2)cc1 (configuration not stated)
7.73 min | c1ccc2ncncc2c1

LC retention time | Compound
9.45 min | Cc1nc(=S)c2ccccc2[nH]1
10.9 min | CC(C)Cc1nc2ccccc2n1CC(C)C
17.8 min | CCCCCCCCCCNCCCCCCCCCC
8.44 min | CCCOC(=O)CCNc1n[nH]c(=O)[nH]c1=O
16.2 min | COC(=O)Cn1c2c(c3ccccc31)CCCC2
7.8 min | NC1C(=O)Nc2ccccc21 (configuration not stated)
6.88 min | CCOC(=O)C1CCC(=O)N1 (configuration not stated)
9.79 min | Cc1ccc(C=NNC(=O)C(=O)NC(C)C)o1
14.3 min | O=C(C=Cc1ccccc1)c1ccc(O)cc1O
17.2 min | O=C(NCCCCc1ccccc1)c1ccc2ccccc2n1
6.38 min | C#CC(C)(C)N
20.2 min | c1ccc(N(c2ccccc2)c2ccccc2)cc1
8.73 min | O=Cc1cccc2ncccc12
7.88 min | O=C1NC2CCCCC2NC1CC(=O)N1CCN(Cc2ccccc2)CC1 (configuration not stated)
8.32 min | CC[N+](CC)(CC)Cc1ccccc1
8.47 min | CCNc1ccccc1C
9.72 min | O=C(O)c1c(-c2ccccc2)c(-c2ccccc2)n[nH]c1=O
11.2 min | O=C(O)CCC(=O)Nc1ccc2c(c1)CCCC2
1.56 min | Cc1c(C(=O)O)[nH]c(=O)[nH]c1=O
10.1 min | COc1ccc2c(=O)c(C)c(-c3ccccc3)oc2c1CN(C)C
11.4 min | Oc1ccc(-c2cnc3ccccc3n2)cc1
5.74 min | Nc1ccc2[nH]ncc2c1
7.02 min | CC1CN=C(NC2CCCCC2)S1 (configuration not stated)
8.99 min | CC1CC(C)(C)Nc2c(O)cccc21 (configuration not stated)

LC retention time | Compound
8.41 min | CC(C(=O)O)n1cccc1 (configuration not stated)
8.09 min | NCc1cc2ccccc2o1
8.04 min | CC1CC(C)(C)Nc2ccc(O)cc21 (configuration not stated)
9.1 min | C=CC1CN2CCC1CC2C(O)c1ccnc2ccc(OC)cc12 (configuration not stated)
15.7 min | CCn1c2ccccc2c2cc(C=NNC(=O)c3ccc(C)cc3)ccc21
12.3 min | Cc1ccc(C=C2CN(C)CC(=Cc3ccc(C)cc3)C2=O)cc1
8.96 min | Nc1ccccc1OCCOc1ccccc1N
9.23 min | CC(C)[N+]1(C)C2CCC1CC(OC(=O)C(CO)c1ccccc1)C2 (configuration not stated)
9.22 min | NCCOc1ccc2ccccc2c1
8.62 min | O=C(NN=CC=NNC(=O)c1ccccn1)c1ccccn1
13.8 min | c1coc(-c2c3c(nc4ccc5ccccc5c24)CCCC3)c1
18.8 min | Cc1ccc(-c2cc(-c3ccc(C)cc3)on2)cc1
8.12 min | CCN(CC)c1nc(N)nc(N2N=CC=NN2)n1
8.16 min | Cc1c(-c2nc3ccccc3[nH]2)cnn1C
15.8 min | CCOC(=O)c1[nH]c(C)c(C(=O)OCc2ccccc2)c1C
8.67 min | NCCCSc1ccccc1
16.6 min | O=C(NCc1ccc(-n2cccc2)cc1)C(c1ccccc1)c1ccccc1
11 min | S=C(Nc1cccnc1)NC1CCCc2ccccc21 (configuration not stated)
8.14 min | CCNC(=S)Nc1ccccc1N
11.1 min | CCc1ccccc1NCC(=O)O
10.7 min | CC(C)NCC(O)COc1ccc(CCOCC2CC2)cc1 (configuration not stated)
3.64 min | COC(=O)CN
7.09 min | CCCC(C)N (configuration not stated)

Further lines, the molecule ahead of its results:

Compound | LC retention time
Nc1nc(N)c2nc(-c3ccccc3)c(N)nc2n1 | 8.71 min
CN(C)Cc1c[nH]c2ccccc12 | 7.66 min
O=C1CCCN1CP(=O)(O)CN1CCCC1=O | 1.46 min
Nc1ncnc(N)n1 | 7.16 min
O=C(O)C=CC(=O)N1CCc2ccccc21 | 9.97 min
CN(c1ccccc1)c1nc(-n2ccnc2)nc(-n2ccnc2)n1 | 11.3 min
Cc1cc(C)cc(NC(=O)c2cc(-c3ccccc3)nc3ccccc23)c1 | 17.9 min
CC1(C)CC(=O)NC(=O)C1 | 7.12 min
O=C(Nc1ccc2[nH]c(=O)[nH]c2c1)c1ccco1 | 7.75 min
NC1CCOC1=O (configuration not stated) | 3.11 min
CC1CCCN(CC(O)CN)C1 (configuration not stated) | 7.32 min
CN(CCNc1ccccc1)C(N)=O | 7.86 min
NC(=O)c1ccccc1NC(=O)CN1CCCC1 | 7.36 min
C=CCN1CCC23c4c5ccc(O)c4OC2C(O)C=CC3C1C5 (configuration not stated) | 8.18 min
Cc1ccccc1N1C(=O)NC(=O)C(=Cc2cccn2C)C1=O | 10.9 min
Nc1ccccc1NCCOc1ccccc1 | 11 min
Cc1ccc(N2NC(C)(CC(C)C)NC2=S)cc1 (configuration not stated) | 15.1 min
COc1ccc2c3c1OC1C(=O)CCC4C(C2)N(C)CCC314 (configuration not stated) | 8.61 min
O=C(C=Cc1ccccc1)c1cc2ccccc2o1 | 16.7 min
C1CCNCC1 | 6.6 min
Cc1nn(-c2ccc(C(=O)N3CCN(C)CC3)cc2)c(=O)c2ccccc12 | 8.65 min

Compound | LC retention time
COc1ccc(OCc2nc3ccccc3nc2C)cc1 | 14.1 min
CC(C)(C)C(=O)NNc1ccccc1 | 10.5 min
Cc1c(N)cccc1C(N)=O | 5.38 min
Cc1c(C(=O)N(C)c2ccccc2)oc2ccccc12 | 15.3 min
CCCNC(=O)Nc1ccc(C(=O)OC)cc1 | 10.8 min
CC1Cc2ccccc2N1 (configuration not stated) | 7.66 min
Cc1ccc2nc(C)[nH]c2c1 | 8.32 min
c1ccc2c(N3CCCCC3)nc(N3CCCC3)nc2c1 | 11.7 min
CCNCC(O)CC (configuration not stated) | 6.36 min
CN(C)c1nc(N(C)C)nc(N2CCCCC2)n1 | 11.2 min
CC(C)=C(NC(=O)c1ccccc1)C(=O)NCCc1c(C)[nH]c2ccccc12 | 12.3 min
Cc1cc(C)c(NC(=O)c2ccncc2)c(C)c1 | 10.4 min
NCCn1cnc2ccccc2c1=O | 7.46 min
NCC(O)CO (configuration not stated) | 2.77 min
COc1ccc(N)cc1 | 7.59 min
Nc1ccc(Cc2ccncc2)cc1 | 8.71 min
CCCC[N+]1(CCCC)CC[N+](CCCC)(CCCC)CC1 | 9.16 min
COc1ccc(C(CNC(=O)c2n[nH]c(=O)c3ccccc23)Cc2ccccc2)cc1OC (configuration not stated) | 13.3 min
c1ccc2ncccc2c1 | 7.27 min
CC(=Nc1ccc(N=Nc2ccccc2)cc1)N(C)C | 10.9 min
O=C(NN=Cc1ccncc1)c1ccccc1 | 8.3 min

Compound | LC retention time
Nc1ccc2ncc(=O)[nH]c2c1 | 6.59 min
Cn1nc(-c2ccccc2)c(-c2ccccc2)c(C(=O)O)c1=O | 11.2 min
c1ccc2c(c1)CCc1c-2[nH]c2ccccc12 | 17.1 min
Cc1ccc(CNC(=S)Nc2ccccc2)n1C | 13.1 min
O=C(O)CC(NC(=O)OCc1ccccc1)C(=O)O (configuration not stated) | 9.01 min
OCC1CCCN2CCCCC12 (configuration not stated) | 6.81 min
COC(=O)CCN1CCCCC1 | 7.02 min
O=c1ccc2nc3ccc(O)cc3oc-2c1 | 9.57 min
CN1CCC2(CC1)NC(=O)N(c1ccccc1)N2 | 7.95 min
S=C1N=C2CCCC2C2(CCCC2)N1 (configuration not stated) | 8.95 min
O=C1CCCN1c1ccc(O)cc1 | 7.71 min
OCC1Cc2ccccc2CN1 (configuration not stated) | 7.39 min
CN(C)C1CCNC1 (configuration not stated) | 6.6 min
c1ccc(-c2cc3ccccc3[nH]2)cc1 | 15.8 min
CCCCc1ccc(NC=CC(=O)c2ccc(C)cc2)cc1 | 21.5 min
CC1NCCC2(O)CCCCC12 (configuration not stated) | 7.09 min
CNc1cnccn1 | 6.32 min
CC(=O)Nc1ccc(C(=O)NCCc2c[nH]c3ccc(C)cc23)cc1 | 11.1 min
Cc1cc(C)n(CCO)c(=O)n1 | 5.92 min
